Test: molar heat capacity at constant pressure
Details: 101.33 kPa, Crystal

O=Cc1ccc([N+](=O)[O-])cc1[N+](=O)[O-] [2,4-dinitrobenzaldehyde]
Details | molar heat capacity at constant pressure [J/K/mol]
78.06 K | 18.67
80 K | 19.77
80.91 K | 20.32
82.54 K | 21.07
85.26 K | 22.24
87.46 K | 22.9
89.5 K | 23.64
91.38 K | 24.46
93.21 K | 24.83
94.98 K | 25.29
96.7 K | 25.84
98.42 K | 26.88
100.08 K | 26.98
101.76 K | 28.11
103.39 K | 28.44
105 K | 28.62
106.58 K | 28.9
108.14 K | 29.07
109.68 K | 30.37
111.2 K | 30.49
112.69 K | 30.46
114.18 K | 31.08
115.64 K | 31.43
117.09 K | 32.01
118.49 K | 32.5
119.86 K | 32.88
121.24 K | 33.37
122.59 K | 33.47
123.93 K | 34.53
125.27 K | 34.53
126.61 K | 35.11
127.96 K | 35.79
129.3 K | 36.37
130.69 K | 36.18
132.09 K | 36.27
133.43 K | 37.34
134.81 K | 37.63
136.17 K | 37.14
137.59 K | 37.92
138.97 K | 37.37
140.34 K | 37.47
141.69 K | 37.08
143.04 K | 37.04
144.37 K | 37.54
145.68 K | 37.82
146.97 K | 37.82
148.25 K | 38.92
149.52 K | 39.16
150.78 K | 38.26
152.03 K | 39.82
153.25 K | 40.53
154.49 K | 40.73
155.72 K | 40.92
156.96 K | 41.6
158.19 K | 41.6
159.41 K | 42.39
160.67 K | 43.2
161.9 K | 43.2
163.15 K | 43.8
164.37 K | 44.11
165.6 K | 44.7
166.79 K | 45.28
167.97 K | 45.57
169.2 K | 45.95
171.64 K | 46.17
175.32 K | 46.7
178.53 K | 47.5
181.57 K | 47.76
184.51 K | 49.49
187.41 K | 49.49
190.27 K | 51.22
193.04 K | 52.12
195.57 K | 52.73
198.42 K | 54.38
201.09 K | 55.42
202.7 K | 55.05
206.17 K | 56.4
208.82 K | 57.15

— the NIST ThermoML archive (doi:10.1016/j.jct.2004.09.018)
